Data on 27 molecules can be found in ChEMBL document CHEMBL2029231, “A novel series of pyrazolylpiperidine N-type calcium channel blockers” (Bioorg Med Chem Lett, 2012).

The subject of one series is Rattus norvegicus. Briefly: Antiinflammatory activity in ip dosed Sprague-Dawley rat assessed as reversal of carrageenan-induced thermal hypersensitivity administered 1 hr before carrageenan challenge.
Conditions: not given
Type of series: functional, organism-based.
`COc1ccccc1-n1nc(C2CCN(S(C)(=O)=O)CC2)cc1-c1ccc(Cl)cc1`: the Activity entry is “Dose-dependent effect”.

Test system in a further series: not listed separately
Briefly: (§1) Metabolic stability in human liver microsomes assessed as compound remaining after 10 mins. The conditions noted are these: liver microsomes, read-out: Stability. The format is ADME, Microsome. In general terms: Liver microsomes are vesicles of endoplasmic reticulum, rich in cytochrome P450 enzymes.
As to `COc1ccccc1-n1nc(C2CCN(S(C)(=O)=O)CC2)cc1-c1ccc(Cl)cc1`, the remaining at 10 min was 86%.
Same read-out and setting: next, `COc1ccccc1-n1nc(C2CCN(S(=O)(=O)CC(F)(F)F)CC2)cc1-c1ccc(Cl)cc1`: 100%; `CC(C)Oc1ccccc1-n1nc(C2CCN(S(C)(=O)=O)CC2)cc1-c1ccc(Cl)cc1`: 18%; `COc1ccccc1-n1nc(C2CCN(S(=O)(=O)C(C)C)CC2)cc1-c1ccc(Cl)cc1`: 100%.
The same measure, in the same setting: next, `COc1ccccc1-n1nc(C2CCN(S(=O)(=O)C(F)(F)F)CC2)cc1-c1ccc(Cl)cc1`: 98%.
For the molecule `COc1ccccc1-n1nc(C2CCN(C(C)=O)CC2)cc1-c1ccc(Cl)cc1`, the remaining at 10 min was determined as 59%.

In a further series the test system is Liver microsomes. Described as §1. Type of series: ADME, Microsome. The conditions noted are these: microsomes, 10 min.
Turning to `COc1ccccc1-n1nc(C2CCN(S(=O)(=O)N(C)C)CC2)cc1-c1ccc(Cl)cc1`, the Stability result is reported as “Unstable”.
Take `CCS(=O)(=O)N1CCC(c2cc(-c3ccc(Cl)cc3)n(-c3ccccc3OC)n2)CC1`: the Stability entry is recorded as “Unstable”.

Test system in the next series: not listed separately
Nature of the series: Oral bioavailability in Sprague-Dawley rat at 10 mg/kg. The format is ADME, organism-based. The conditions noted are these: in vivo.
Broadly, the bioavailability is dose-corrected exposure relative to a reference, in per cent. Low readings indicate poor availability, high ones good availability. Molecule `COc1ccccc1-n1nc(C2CCN(S(C)(=O)=O)CC2)cc1-c1ccc(Cl)cc1` returned a bioavailability of 42.5%.

Test system in the next series: not listed separately
Briefly: Cmax in Sprague-Dawley rat at 10 mg/kg, po. Type of series: ADME, organism-based. The arrangement: dose 10 mg/kg, route oral. Particulars: in vivo.
The term Cmax denotes the highest concentration seen after dosing. `COc1ccccc1-n1nc(C2CCN(S(C)(=O)=O)CC2)cc1-c1ccc(Cl)cc1` showed a Cmax of 1.5 µM.

Test system in another series: not listed separately
Briefly: (§2) Metabolic stability in rat liver microsomes assessed as compound remaining after 10 mins. Type of series: ADME, Microsome. The conditions noted are these: liver microsomes, read-out: Stability.
`COc1ccccc1-n1nc(C2CCN(S(C)(=O)=O)CC2)cc1-c1ccc(Cl)cc1`: the remaining at 10 min came to 45%.
Regarding `COc1ccccc1-n1nc(C2CCN(S(=O)(=O)CC(F)(F)F)CC2)cc1-c1ccc(Cl)cc1`, the remaining at 10 min was 33%.
Regarding `COc1ccccc1-n1nc(CCCO)cc1-c1ccc(Cl)cc1`, the remaining at 10 min came out at 14%.
With `CC(C)Oc1ccccc1-n1nc(C2CCN(S(C)(=O)=O)CC2)cc1-c1ccc(Cl)cc1`, the remaining at 10 min is 5%.
With `COc1ccccc1-n1nc(C2CCN(S(=O)(=O)C(C)C)CC2)cc1-c1ccc(Cl)cc1`, the remaining at 10 min amounted to 19%.
As to `COc1ccccc1-n1nc(C2CCN(S(=O)(=O)C(F)(F)F)CC2)cc1-c1ccc(Cl)cc1`, the remaining at 10 min amounted to 100%.
For `COc1ccccc1-n1nc(C2CCN(C(C)=O)CC2)cc1-c1ccc(Cl)cc1`, the remaining at 10 min came to 7%.
As for `CCS(=O)(=O)N1CCC(c2cc(-c3ccc(Cl)cc3)n(-c3ccccc3OC)n2)CC1`, the remaining at 10 min stood at 22%.

In a further series the test system is Liver microsomes. The series is described as §2. Particulars: microsomes, 10 min. Type of series: ADME, Microsome.
Regarding `COc1ccccc1-n1nc(C2CCN(S(=O)(=O)N(C)C)CC2)cc1-c1ccc(Cl)cc1`, the Stability result is recorded as “Unstable”.

Test system in a further series: not listed separately
Briefly: Inhibition of N-type calcium channel alpha1B/alpha2delta-1/beta1b assessed as inhibition of KCl-induced calcium mobilization by FDSS.
Conditions: not given
For orientation: Calcium assays in cells follow changes in intracellular calcium, usually with a dye or a luminescent sensor.
In general, IC50 refers to the midpoint of a concentration-inhibition curve. For `COc1ccccc1-n1nc(C2CCN(S(C)(=O)=O)CC2)cc1-c1ccc(N(C)C)cc1`, the IC50 was 61 nM.
For the molecule `COc1ccccc1-n1nc(C2CCN(S(C)(=O)=O)CC2)cc1-c1ccc(Cl)c(C#N)c1`, the IC50 came out at 95 nM.
On the same count and under the same terms, in the case of `COc1ccccc1-n1nc(C2CCN(S(C)(=O)=O)CC2)cc1-c1ccc(Cl)cc1Cl` it was 15 nM; in that of `COc1ccccc1-n1nc(C2CCN(S(C)(=O)=O)CC2)cc1C1=CCC(C)(C)CC1`, 49 nM.
On to `COc1ccccc1-n1nc(C2CCN(S(C)(=O)=O)CC2)cc1-c1cc2ccccc2o1`, for which the IC50 worked out at 400 nM.
On to `COc1ccccc1-n1nc(C2CCN(S(C)(=O)=O)CC2)cc1-c1ccc(Cl)cc1`, for which the IC50 stood at 27 nM.
As to `COc1ccccc1-n1nc(C2CCN(S(C)(=O)=O)CC2)cc1-c1ccc(C#N)cc1`, the IC50 came to 170 nM.
Take `COc1ccccc1-n1nc(C2CCN(S(=O)(=O)CC(F)(F)F)CC2)cc1-c1ccc(Cl)cc1`: the IC50 is 26 nM.
As to `CS(=O)(=O)N1CCC(c2cc(-c3ccc(Cl)cc3)n(-c3ccccc3N)n2)CC1`, the IC50 was over 300 nM.
With `COc1ccccc1-n1nc(C2CCN(S(C)(=O)=O)CC2)cc1-c1ccc(C(C)(C)C)cc1`, the IC50 is 29 nM.
Take `CNc1ccc(-c2cc(C3CCN(S(C)(=O)=O)CC3)nn2-c2ccccc2OC)cc1`: the IC50 worked out at 200 nM.
As to `CN(C)c1ccccc1-n1nc(C2CCN(S(C)(=O)=O)CC2)cc1-c1ccc(Cl)cc1`, the IC50 stood at 13 nM.
On the same count and under the same terms, next, `COc1ccccc1-n1nc(C2CCN(S(C)(=O)=O)CC2)cc1-c1ccc(F)cc1`: 98 nM.
With `COc1ccccc1-n1nc(CCCO)cc1-c1ccc(Cl)cc1`, the IC50 amounted to 97 nM.
Still for that read-out and setting: in the case of `COc1ccccc1-n1nc(C2CCN(S(C)(=O)=O)CC2)cc1-c1ccc2c(ccn2C)c1` it was 68 nM.
On the same count and under the same terms, in the case of `COc1c(Cl)cccc1-n1nc(C2CCN(S(C)(=O)=O)CC2)cc1-c1ccc(Cl)cc1` it was 170 nM; in that of `COc1ccccc1-n1nc(C2CCN(S(C)(=O)=O)CC2)cc1C1CCC(C)(C)CC1`, 140 nM; in that of `COc1ccccc1-n1nc(C2CCN(S(C)(=O)=O)CC2)cc1-c1ccc(OC(C)C)cc1`, 250 nM.
Take `CC(C)Oc1ccccc1-n1nc(C2CCN(S(C)(=O)=O)CC2)cc1-c1ccc(Cl)cc1`: the IC50 worked out at 5 nM.
Consider `COc1ccccc1-n1nc(C2CCN(S(C)(=O)=O)CC2)cc1-c1ccc(Cl)c(C(F)(F)F)c1`, for which the IC50 was determined as 100 nM.
Turning to `OCCCc1cc(-c2ccc(Cl)cc2)n(-c2ccccc2)n1`, the IC50 worked out at 1200 nM.
In the case of `COc1ccccc1-n1nc(C2CCN(S(=O)(=O)C(C)C)CC2)cc1-c1ccc(Cl)cc1`, the IC50 came out at 18 nM.
Still for that read-out and setting: in the case of `COc1ccccc1-n1nc(C2CCN(S(=O)(=O)C(F)(F)F)CC2)cc1-c1ccc(Cl)cc1` it was 16 nM; in that of `COc1ccccc1-n1nc(C2CCN(C(C)=O)CC2)cc1-c1ccc(Cl)cc1`, 17 nM; in that of `COc1ccccc1-n1nc(C2CCN(S(=O)(=O)N(C)C)CC2)cc1-c1ccc(Cl)cc1`, 11 nM.
The same measure, in the same setting: in the case of `CCS(=O)(=O)N1CCC(c2cc(-c3ccc(Cl)cc3)n(-c3ccccc3OC)n2)CC1` it was 35 nM; in that of `COc1ccccc1-n1nc(C2CCN(S(C)(=O)=O)CC2)cc1-c1ccc(Cl)s1`, 93 nM.

Test system in another series: not listed separately
Nature of the series: Half life in Sprague-Dawley rat at 2 mg/kg, iv. Particulars: in vivo. The format is ADME, organism-based. The arrangement: dose 2 mg/kg, route intravenous.
The term half-life denotes the time in which the quantity being followed falls by half. A higher half-life goes with slow loss. Take `COc1ccccc1-n1nc(C2CCN(S(C)(=O)=O)CC2)cc1-c1ccc(Cl)cc1`: the half-life was 1.5 h.

Test system in the next series: not listed separately
Nature of the series: Tmax in Sprague-Dawley rat at 10 mg/kg, po. Particulars: in vivo. Type of series: ADME, organism-based. The arrangement: dose 10 mg/kg, route oral.
For orientation: Tmax means the time at which the peak concentration occurs. For the molecule `COc1ccccc1-n1nc(C2CCN(S(C)(=O)=O)CC2)cc1-c1ccc(Cl)cc1`, the Tmax turned out to be 0.9 h.

Test system in the next series: not listed separately
Briefly: Clearance in Sprague-Dawley rat at 2 mg/kg, iv. The format is ADME, organism-based. The arrangement: dose 2 mg/kg, route intravenous. The conditions noted are these: in vivo.
As a reminder, the clearance is the rate of elimination divided by the concentration. Higher therefore signals a high capacity for elimination. In turn, `COc1ccccc1-n1nc(C2CCN(S(C)(=O)=O)CC2)cc1-c1ccc(Cl)cc1` yielded a clearance of 26 mL/min/kg.

For a further series, the species on record is Rattus norvegicus. Briefly: Ex vivo inhibition of rat N-type calcium channel assessed as inhibition of KCl-stimulated CGRP release at 1 uM by ELISA in presence of conotoxin GVIA.
Conditions: not given
Type of series: functional. A general note: ELISA stands for enzyme-linked immunosorbent assay.
Take `COc1ccccc1-n1nc(C2CCN(S(C)(=O)=O)CC2)cc1-c1ccc(Cl)cc1`: the “inhibition (INH)” value is given as 91%.

Test system in a further series: not listed separately
Briefly: Inhibition of N-type calcium channel alpha1B/alpha2delta-1/beta1b by patch clamp analysis.
Conditions: not given
Consider `COc1ccccc1-n1nc(C2CCN(S(C)(=O)=O)CC2)cc1-c1ccc(Cl)cc1`, for which the IC50 was determined as 200 nM.
`COc1ccccc1-n1nc(C2CCN(S(=O)(=O)C(C)C)CC2)cc1-c1ccc(Cl)cc1`: the IC50 came to 80 nM.

In a further series the test system is Plasma. Nature of the series: Plasma concentration in Sprague-Dawley rat at 30 mg/kg, ip. Type of series: ADME, organism-based. Particulars: in vivo. The arrangement: dose 30 mg/kg, route intraperitoneal.
As for `COc1ccccc1-n1nc(C2CCN(S(C)(=O)=O)CC2)cc1-c1ccc(Cl)cc1`, the concentration came to 8.32 µM.

Test system in another series: not listed separately
Nature of the series: Inhibition of L-type calcium channel at 5 uM.
Conditions: not given
The inhibition is the share of the control response that was lost under treatment. For the molecule `COc1ccccc1-n1nc(C2CCN(S(C)(=O)=O)CC2)cc1-c1ccc(Cl)cc1`, the inhibition stood at 52%.

For another series, the system named is Rattus norvegicus. Briefly: Antiallodynic activity in Sprague-Dawley rat chronic constriction injury-induced neuropathic pain model assessed as attenuation of CCl-induced cold allodynia at 30 mg/kg, ip measured at 1 to 4 hrs. Particulars: route intraperitoneal. The format is functional.
By inhibition in vivo is commonly meant the share of the control response that was lost under treatment. `COc1ccccc1-n1nc(C2CCN(S(C)(=O)=O)CC2)cc1-c1ccc(Cl)cc1`: the inhibition in vivo at 30 mg/kg was found to be 41%.

In a further series the test system is Rattus norvegicus. Nature of the series: Antiinflammatory activity in Sprague-Dawley rat assessed as reversal of carrageenan-induced thermal hypersensitivity at 30 mg/kg, ip administered 1 hr before carrageenan challenge relative to control. The format is functional. Particulars: route intraperitoneal.
Consider `COc1ccccc1-n1nc(C2CCN(S(C)(=O)=O)CC2)cc1-c1ccc(Cl)cc1`, for which the Activity is reported as 82%.
